tested on: abl kinase; experiment: abl kinase inhibition assay; assay type: biochemical

Compared with C/C=C/c1cc(Nc2cc(N3CCN(CC)CC3)nc(Oc3cc(F)c4[nH]c(C)cc4c3F)n2)n[nH]1 [Example 99], C/C=C/c1cc(Nc2cc(N3CCN(C)CC3)nc(Oc3cc(F)c4[nH]c(C)cc4c3F)n2)n[nH]1 [Example 87] is lower in “% Inhibition @1 μM Abl” value: 113% for the first, 112% for the second.

Compared with Cc1cc2c(F)c(Oc3nc(Nc4cc(C5CC5)[nH]n4)cc(N4CCN(CCO)CC4)n3)ccc2[nH]1 [Example 12], COCCN1CCN(c2cc(Nc3cc(C4CC4)[nH]n3)nc(Oc3ccc4[nH]c(C)cc4c3F)n2)CC1 [Example 28] is lower in “% Inhibition @1 μM Abl” value: 112% for the first, 108% for the second.

C/C=C/c1cc(Nc2cc(N3CCC(O)C3)nc(Oc3cc(F)c4[nH]c(C)cc4c3F)n2)n[nH]1 (centres unmarked) [Example 92] and C/C=C/c1cc(Nc2cc(N3CCC(N(CC)CC)C3)nc(Oc3cc(F)c4[nH]c(C)cc4c3F)n2)n[nH]1 (centres unmarked) [Example 94] are the same in “% Inhibition @1 μM Abl” value: 111% for the first, 111% for the second.

First: C/C=C/c1cc(Nc2cc(N3CCOCC3)nc(Oc3ccc4[nH]c(C)cc4c3F)n2)n[nH]1 [Example 67]
Second: C/C=C/c1cc(Nc2cc(N3CCNCC3)nc(Oc3ccc4[nH]c(C)cc4c3F)n2)n[nH]1 [Example 68]
The “% Inhibition @1 μM Abl” value of the first is higher: 112% for the first, 107% for the second.

First: Cc1cc2c(F)c(Oc3nc(Nc4cc(C5CC5)[nH]n4)cc(N4CCOC(CN(C)C)C4)n3)ccc2[nH]1 (centres unmarked) [Example 30]
Second: CCC1CN(c2cc(Nc3cc(C4CC4)[nH]n3)nc(Oc3ccc4[nH]c(C)cc4c3F)n2)CCN1 (centres unmarked) [Example 41]
The “% Inhibition @1 μM Abl” value of the first is higher: 110% for the first, 108% for the second.

Compared with C/C=C/c1cc(Nc2cc(N3CCN(CCOC)CC3)nc(Oc3ccc4[nH]c(C)cc4c3F)n2)n[nH]1 [Example 54], C/C=C/c1cc(Nc2cc(N3CCN(C)CC3)nc(Oc3ccc4[nH]c(C)cc4c3F)n2)n[nH]1 [Example 53] is higher in “% Inhibition @1 μM Abl” value: 108% for the first, 109% for the second.

First: C/C=C/c1cc(Nc2cc(N3CCC(OC)CC3)nc(Oc3ccc4[nH]c(C)cc4c3F)n2)n[nH]1 [Example 58]
Second: Cc1cc2c(F)c(Oc3nc(Nc4cc(C5CC5)[nH]n4)cc(N4CCC(F)CC4)n3)ccc2[nH]1 [Example 22]
The “% Inhibition @1 μM Abl” value of the first is higher: 112% for the first, 108% for the second.

Cc1cc2c(F)c(Oc3nc(Nc4cc(C5CC5)[nH]n4)cc(N4CCN(C)CC4)n3)cc(F)c2[nH]1 [Example 81] and Cc1cc2c(F)c(Oc3nc(Nc4cc(C5CC5)[nH]n4)cc(N4CCN(CCO)CC4)n3)cc(F)c2[nH]1 [Example 83] are the same in “% Inhibition @1 μM Abl” value: 110% for the first, 110% for the second.

First: Cc1cc2c(F)c(Oc3nc(Nc4cc(C5CC5)[nH]n4)cc(N4CCN(CC(F)(F)F)CC4)n3)ccc2[nH]1 [Example 38]
Second: CCN1CCN(c2cc(Nc3cc(C4CC4)[nH]n3)nc(Oc3ccc4[nH]c(C)cc4c3F)n2)CC1 [Example 31]
The “% Inhibition @1 μM Abl” value of the first is lower: 108% for the first, 115% for the second.

Going from C/C=C/c1cc(Nc2cc(N3CCNCC3)nc(Oc3cc(F)c4[nH]c(C)cc4c3F)n2)n[nH]1 [Example 90] to CCN1CCN(c2cc(Nc3cc(C)[nH]n3)nc(Oc3cc(F)c4[nH]c(C)cc4c3F)n2)CC1 [Example 103], the “% Inhibition @1 μM Abl” value rises from 112% to 113%.

Compared with Cc1cc2c(F)c(Oc3nc(Nc4cc(C5CC5)[nH]n4)cc(N4CCOCC4)n3)cc(F)c2[nH]1 [Example 84], Cc1cc2c(F)c(Oc3nc(Nc4cc(C5CC5)[nH]n4)cc(N4CCC(O)CC4)n3)ccc2[nH]1 [Example 21] is higher in “% Inhibition @1 μM Abl” value: 103% for the first, 107% for the second.

First: Cc1cc2c(F)c(Oc3nc(Nc4cc(C5CC5)[nH]n4)cc(N4CCN(c5ccncc5)CC4)n3)ccc2[nH]1 [Example 27]
Second: Cc1cc2c(F)c(Oc3nc(Nc4cc(C5CC5)[nH]n4)cc(N4CCN(c5cccnc5)CC4)n3)ccc2[nH]1 [Example 26]
The “% Inhibition @1 μM Abl” value of the first is lower: 108% for the first, 109% for the second.

Going from Cc1cc2c(F)c(Oc3nc(Nc4cc(C5CC5)[nH]n4)cc(N4CCN(c5ccccn5)CC4)n3)ccc2[nH]1 [Example 25] to C/C=C/c1cc(Nc2cc(N3CCOCC3)nc(Oc3ccc4c(cc(C)n4C)c3F)n2)n[nH]1 [Example 121], the “% Inhibition @1 μM Abl” value rises from 108% to 116%.
